Molecules are shown by their SMILES.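 Cultured in 96-well plates, cells were exposed to test compound for 48 hours across five concentrations. Here, GI50 denotes the concentration required for 50% inhibition of growth.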 Calls of active or inactive are those of the source. Cut-off read from the data, not from the text of the source: active = GI50 up to about 1.1 µM and inactive = higher. Where only a bound is given, the exact number is not on record here.

Some test systems named below: HOP-92; RXF 393; OVCAR-4; OVCAR-5; 786-0; UACC-257; OVCAR-3; Hs-578T; K562; HOP-62; NCI-H226; SF-539; SN12C; SF-268; BT-549; OVCAR-8; SK-MEL-2; SK-MEL-5; HL-60.
Common to all, as to assay: NCI tumour cell line growth inhibition, 48 h

`Cc1ccc(/C(C#N)=C/c2cccc([N+](=O)[O-])c2)cc1`: the GI50 in the assay on HOP-92 was 32.2 µM (inactive); in the assay with RXF 393 it was 19.3 µM (inactive); in the assay on OVCAR-4, 57.8 µM (inactive); in the assay on OVCAR-5, > 100 µM (inactive); with 786-0, 31.8 µM (inactive); in the assay on UACC-257 it was > 100 µM (inactive). Further, the GI50 in the assay with OVCAR-3 was > 100 µM (inactive); in the assay with Hs-578T, 27.4 µM (inactive); in the assay on K562 it was > 100 µM (inactive); in the assay on HOP-62, 38.1 µM (inactive); in the assay with NCI-H226, > 100 µM (inactive); in the assay on SF-539, 46.5 µM (inactive). Further, the GI50 with SN12C is > 100 µM (inactive); in the assay on SF-268, 37.2 µM (inactive); with BT-549, > 100 µM (inactive); in the assay with OVCAR-8, 59.2 µM (inactive); in the assay on SK-MEL-2, 51.9 µM (inactive); in the assay with SK-MEL-5, > 100 µM (inactive).

Take `CC(CCC(=O)O)(c1ccc(O)cc1)c1ccc(O)cc1`: the GI50 with HOP-92, with RXF 393, in the assay with OVCAR-4, in the assay with OVCAR-5, in the assay on 786-0 and in the assay with UACC-257 was > 100 µM (inactive) throughout. The GI50 in the assay with OVCAR-3, in the assay with Hs-578T, in the assay on K562, in the assay with HOP-62, in the assay on NCI-H226 and in the assay on SN12C was > 100 µM (inactive) throughout. Also, the GI50 in the assay with SF-268, with BT-549, in the assay on OVCAR-8, in the assay with SK-MEL-2 and in the assay with SK-MEL-5 was > 100 µM (inactive) throughout.

On to `COc1cc(C(=O)O)c([N+](=O)[O-])c(OC)c1OC`, for which the GI50 in the assay with HOP-92 is > 100 µM (inactive); in the assay on RXF 393, > 100 µM (inactive); in the assay on OVCAR-4, > 100 µM (inactive); with OVCAR-5, 63.2 µM (inactive); in the assay on 786-0 it was > 100 µM (inactive); in the assay on UACC-257 it was > 100 µM (inactive). The GI50 in the assay on OVCAR-3, in the assay on Hs-578T, with HOP-62, in the assay with NCI-H226, in the assay with SF-539 and with SN12C was > 100 µM (inactive) in each case. The GI50 in the assay on SF-268, in the assay with BT-549, in the assay on OVCAR-8, in the assay with SK-MEL-2 and in the assay on SK-MEL-5 was > 100 µM (inactive) in each case.

For the compound `CC(N/N=C(\S)N1CCN(c2ccccn2)CC1)c1cccc[n+]1[O-]` (centres undefined), the GI50 was 20.5 µM (inactive) in the assay on HOP-92; 16.2 µM (inactive) in the assay on RXF 393; 14 µM (inactive) in the assay on OVCAR-4; 7.71 µM (inactive) in the assay on 786-0; 30.9 µM (inactive) in the assay on UACC-257; 4.9 µM (inactive) in the assay on OVCAR-3. For the same compound, the GI50 in the assay on Hs-578T was 85.7 µM (inactive); in the assay with HL-60, 3.13 µM (inactive); in the assay on K562, 0.811 µM (active); with HOP-62 it was 67.3 µM (inactive); in the assay on NCI-H226, 34.9 µM (inactive); in the assay with SF-539, 17.4 µM (inactive). Further, the GI50 was 23.6 µM (inactive) with SN12C; 22.8 µM (inactive) in the assay on SF-268; 43.2 µM (inactive) in the assay with BT-549; 6.9 µM (inactive) in the assay with OVCAR-8; 12.5 µM (inactive) in the assay with SK-MEL-5.

With `OCCCCn1cc(Cn2ncc3c(O)ncnc32)nn1`, the GI50 in the assay on HOP-92, in the assay on RXF 393, in the assay on OVCAR-4, in the assay on OVCAR-5, in the assay on 786-0 and in the assay on UACC-257 was > 100 µM (inactive) in each case. For the same compound, the GI50 in the assay on OVCAR-3, in the assay on Hs-578T, with K562, in the assay on HOP-62, in the assay on NCI-H226 and with SF-539 was > 100 µM (inactive) throughout. In addition, the GI50 in the assay with SN12C, with SF-268, in the assay on BT-549, in the assay with OVCAR-8, with SK-MEL-2 and in the assay on SK-MEL-5 was > 100 µM (inactive) each time.

On to `Cc1nc(N/N=C/c2ccccc2Cl)[nH]c(=O)c1CCO`, for which the GI50 with HOP-92 is 21.5 µM (inactive); in the assay with RXF 393, 25.9 µM (inactive); in the assay on OVCAR-4, 87.3 µM (inactive); in the assay with OVCAR-5 it was > 100 µM (inactive); with 786-0, > 100 µM (inactive); in the assay with UACC-257, > 100 µM (inactive). Also, the GI50 in the assay on OVCAR-3 is 19.6 µM (inactive); with Hs-578T, 29.4 µM (inactive); in the assay with HL-60, > 100 µM (inactive); in the assay on K562 it was > 100 µM (inactive); in the assay on HOP-62, 21.1 µM (inactive); in the assay on NCI-H226, > 100 µM (inactive). Further, the GI50 in the assay on SF-539 is 77.4 µM (inactive); with SN12C it was 47.4 µM (inactive); in the assay with SF-268 it was 33.5 µM (inactive); in the assay with BT-549, 57.1 µM (inactive); in the assay with OVCAR-8 it was 22 µM (inactive); in the assay on SK-MEL-5 it was > 100 µM (inactive).

Consider `O=C1CC(=O)NC(NN2C(=O)CSC2C(=O)c2ccco2)=N1` (centres undefined), for which the GI50 in the assay with HOP-92, in the assay with RXF 393, in the assay on OVCAR-4, in the assay on OVCAR-5, with 786-0 and in the assay with UACC-257 was > 100 µM (inactive) throughout. For the same compound, the GI50 in the assay with OVCAR-3, with Hs-578T, with K562, with HOP-62, with NCI-H226 and in the assay on SF-539 was > 100 µM (inactive) in each case. The GI50 in the assay on SN12C, in the assay with SF-268, in the assay on BT-549, in the assay on OVCAR-8, in the assay on SK-MEL-2 and in the assay on SK-MEL-5 was > 100 µM (inactive) throughout.

Consider `COc1ccc(-c2c(N)n(-c3nc4ccccc4s3)c(=O)c3cc([N+](=O)[O-])ccc23)cc1`, for which the GI50 in the assay on HOP-92 is 16.4 µM (inactive); in the assay on RXF 393, 14.2 µM (inactive); with OVCAR-4, 24.1 µM (inactive); with OVCAR-5, 22.2 µM (inactive); in the assay with 786-0 it was 4.29 µM (inactive); in the assay on UACC-257, 67.8 µM (inactive). Moreover, the GI50 in the assay with OVCAR-3 is 17 µM (inactive); in the assay with Hs-578T, 13.7 µM (inactive); with HL-60 it was 99.8 µM (inactive); in the assay with K562, 23.2 µM (inactive); in the assay on HOP-62, 14 µM (inactive); in the assay on NCI-H226 it was 37.3 µM (inactive). Moreover, the GI50 with SF-539 is 5.83 µM (inactive); in the assay with SF-268, 17.2 µM (inactive); in the assay with BT-549 it was 89.9 µM (inactive); in the assay with OVCAR-8, 11.2 µM (inactive); with SK-MEL-2 it was 25.4 µM (inactive).

Turning to `COC1(OC)C2(Cl)CCC1(Cl)C(OC(C)=O)C2` (centres undefined), the GI50 in the assay on HOP-92, in the assay with RXF 393, in the assay on OVCAR-4, in the assay on OVCAR-5, with 786-0 and in the assay on UACC-257 was > 100 µM (inactive) throughout. Further, the GI50 in the assay with OVCAR-3, in the assay with Hs-578T, in the assay with K562, in the assay on HOP-62, in the assay on NCI-H226 and in the assay with SF-539 was > 100 µM (inactive) each time. The GI50 with SN12C, with SF-268, with BT-549, in the assay on OVCAR-8, in the assay with SK-MEL-2 and in the assay with SK-MEL-5 was > 100 µM (inactive) in each case.

In the case of `O=c1c2ccc(Cl)cc2oc2c(CSc3ccccc3)cccc12`, the GI50 with HOP-92 was > 39.4 µM (inactive); in the assay with RXF 393 it was > 100 µM (inactive); in the assay with OVCAR-4 it was > 59.4 µM (inactive); in the assay on OVCAR-5, > 62.8 µM (inactive); in the assay on 786-0 it was > 61.5 µM (inactive); in the assay with UACC-257 it was > 57.9 µM (inactive). The GI50 is > 40.8 µM (inactive) with OVCAR-3; > 100 µM (inactive) in the assay with Hs-578T; 15.3 µM (inactive) with K562; > 55 µM (inactive) with HOP-62; 46.3 µM (inactive) in the assay with NCI-H226; 24.5 µM (inactive) in the assay on SF-539. The GI50 with SN12C was 43.6 µM (inactive); with SF-268, > 100 µM (inactive); in the assay on BT-549, > 43 µM (inactive); with OVCAR-8, 62.7 µM (inactive); in the assay on SK-MEL-2 it was > 49.1 µM (inactive); in the assay with SK-MEL-5, > 46.6 µM (inactive).

As for `COC(C)(C)C(O)C(O)C[C@H](C)C1CC=C2C1(C)CCC1[C@@]3(C)CCC(OC(C)=O)C(C)(C)C3CC(OC3OC(COC(C)=O)C(O)C(O)C3O)[C@@]21C` (some centres undefined), the GI50 with HOP-92 was 3.6 µM (inactive); in the assay on RXF 393, 3.85 µM (inactive); with OVCAR-4, 5.86 µM (inactive); in the assay on OVCAR-5 it was 2.88 µM (inactive); in the assay with 786-0, 4.8 µM (inactive); in the assay on UACC-257, 3.02 µM (inactive). Also, the GI50 with OVCAR-3 was 2.94 µM (inactive); in the assay with Hs-578T it was 4.37 µM (inactive); with HL-60 it was 2.59 µM (inactive); with K562, 3.33 µM (inactive); in the assay on HOP-62, 3.98 µM (inactive); with NCI-H226, 5.21 µM (inactive). In addition, the GI50 in the assay on SF-539 was 2.83 µM (inactive); in the assay on SN12C it was 4.2 µM (inactive); in the assay on SF-268, 6.05 µM (inactive); with BT-549, > 10 µM (inactive); with OVCAR-8 it was 3.72 µM (inactive); in the assay with SK-MEL-5 it was 2.21 µM (inactive).

The record behind these values is ChEMBL document CHEMBL1201862, “PubChem BioAssay data set” (2004).
